Measured values reported in patent US20070048250A1, “Methods of treating concomitant constipation in a cancer treatment regimen including imexon” (AmpliMed Corporation, priority 2005, published 2007).

Tested on: gastrointestinal transit of a charcoal meal
Assay: GLP study, gastrointestinal transit of a charcoal meal in rats
Type: in vivo
Details: intravenous, 100 mg/kg
From the text: Following the unexpected identification of constipation toxicities in patients being treated with imexon in a cancer treatment regimen, a GLP (good laboratory practices) study was undertaken to evaluate the effects of imexon on the gastrointestinal transit of a charcoal meal in rats.

effect on gastric emptying: reduction in gastric emptying
Compound: N=C1NC(=O)N2CC12 (centres unmarked) [imexon, 4-imino-1,3-diazabicyclo[3.1.0]-hexan-2-one]
effect on gastrointestinal transit: statistically significant inhibition of gastrointestinal transit
